For this assay, the target named is T1, human-KAT6A (MYST domain 507-778 aa) (Homo sapiens, UniProt Q92794).
T1 construct: human-KAT6A (MYST domain 507-778 aa)
The experiment in a line: KAT6A biochemical assay (TR-FRET). As to conditions: for inhibition at 1 µM: compound at 1 μM, percent inhibition of internal assay controls; for IC50: dose-response, sigmoidal curve fit, groups A, B, C. An excerpt:
A TR-FRET based method was used for assaying compounds of the invention for KAT6A enzyme inhibitory activity. TR-FRET is homogeneous proximity assay where Europium-labelled anti-acetyl lysine antibody binds to the acetylated substrate labelled with biotin which in turn binds to streptavidin labelled APC fluorescence acceptor. Europium can transfer energy to APC in the complex and the interaction of two dye-labelled binding partners is detected by the energy transfer between a donor and an acceptor dye, and the subsequent light emission by the acceptor dye. KAT6A transfer an acetyl group from acetyl CoA to lysine amino acids of histones/target proteins. Typically, 5 μL of human-KAT6A (MYST domain 507-778 aa) in assay buffer (100 mM Tris HCl (pH 7.8), 15 mM NaCl, 1 mM EDTA, 0.01% Tween-20, 0.02% BSA, 1 mM DTT) is added to a 384-well plate containing 5 μL of selected test compound in final 1% DMSO, serially diluted in 1:3 in an 8-10-point titration. The selected compound of the present invention and enzyme are incubated for 30 min at room temperature. Next, 5 μL of substrate mix containing histone H4 peptide and acetyl-CoA in assay buffer is added to the plate. The final concentrations of H4 peptide and acetyl-CoA are 200 nM and 600 nM respectively. Following 30 min reaction at room temperature, 5 μL of detection mix containing Europium labelled anti-acetyl antibody and streptavidin-APC is added to the reaction wells. Plate is further incubated for 45 min at room temperature and is read in TR-FRET mode (Ex: 340 nm; Em: 615 nm and 665 nm) on a plate reader.
Selected compounds of the present invention were screened in the above-mentioned assay procedure and IC50 values were determined by fitting the dose-response data to sigmoidal curve fitting equation using Graph pad prism software V8. […]

T1 sequence (Q92794 507-778): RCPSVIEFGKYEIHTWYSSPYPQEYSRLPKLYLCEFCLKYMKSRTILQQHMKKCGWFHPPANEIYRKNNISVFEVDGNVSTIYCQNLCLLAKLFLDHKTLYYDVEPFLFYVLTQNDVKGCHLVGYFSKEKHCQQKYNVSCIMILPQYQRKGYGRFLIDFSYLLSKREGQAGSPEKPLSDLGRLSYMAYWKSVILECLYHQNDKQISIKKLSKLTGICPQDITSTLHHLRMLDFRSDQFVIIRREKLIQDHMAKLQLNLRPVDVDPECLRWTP

Usually inhibition stands for the change of the read-out against control, counted positive when it falls. High values mean a response far below the control, low ones a response near the control. One may read the IC50 as the concentration that gives 50% inhibition. In the case of `COc1cccc(OC)c1S(=O)(=O)Nc1noc2nc(N3CCC3)cc(OC)c12` [Compound 16, N-(6-(azetidin-1-yl)-4-methoxyisoxazolo[5,4-b]pyridin-3-yl)-2,6-dimethoxybenzenesulfonamide], 1 µM produced 100% inhibition and the half-inhibitory concentration (IC50) was in the range of 110 to 200 nM.

On to `COc1cccc(OC)c1S(=O)(=O)Nc1noc2nc(N3CCC(F)(F)C3)cc(OC)c12` [Compound 18, N-(6-(3,3-difluoropyrrolidin-1-yl)-4-methoxyisoxazolo[5,4-b]pyridin-3-yl)-2,6-dimethoxybenzenesulfonamide], for which the inhibition at 1 µM was 100% and the half-maximal inhibitory concentration (IC50) is less than 100 nM.

On to `COc1cccc(OC)c1S(=O)(=O)Nc1noc2nc(N(C)C)cc(OC)c12` [Compound 15, N-(6-(dimethylamino)-4-methoxyisoxazolo[5,4-b]pyridin-3-yl)-2,6-dimethoxybenzenesulfonamide], for which the inhibition at 1 µM was 59% and the concentration for half-maximal inhibition (IC50) is greater than 200 nM.

Molecule `COc1cccc(OC)c1S(=O)(=O)Nc1noc2cnccc12` [Compound 21, N-(isoxazolo[5,4-c]pyridin-3-yl)-2,6-dimethoxybenzenesulfonamide] displayed an inhibition at 1 µM of 11%.

`COc1cccc(OC)c1S(=O)(=O)Nc1noc2cc(-c3ccccc3)nc(OC)c12` [Compound 3, 2,6-dimethoxy-N-(4-methoxy-6-phenylisoxazolo[4,5-c]pyridin-3-yl)benzenesulfonamide] showed an inhibition at 1 µM of 96% and an IC50 of 110 to 200 nM.

Turning to `COc1cccc(OC)c1S(=O)(=O)Nc1noc2nc(N3CCCC3)cc(OC)c12` [Compound 13, 2,6-dimethoxy-N-(4-methoxy-6-(pyrrolidin-1-yl)isoxazolo[5,4-b]pyridin-3-yl)benzenesulfonamide], the inhibition at 1 µM came out at 97% and the IC50 was 110 to 200 nM.

With `COc1cccc(OC)c1S(=O)(=O)Nc1noc2nc(N3CC(OC)C3)cc(OC)c12` [Compound 17, 2,6-dimethoxy-N-(4-methoxy-6-(3-methoxyazetidin-1-yl)isoxazolo[5,4-b]pyridin-3-yl)benzenesulfonamide], at 1 µM the inhibition was 100% and the half-inhibitory concentration (IC50) was 110 to 200 nM.

In the case of `COc1cccc(OC)c1S(=O)(=O)Nc1noc2cc(-c3ccccc3)ncc12` [Compound 11, 2,6-dimethoxy-N-(6-phenylisoxazolo[4,5-c]pyridin-3-yl)benzenesulfonamide], at 1 µM the inhibition was 12%.

As for `COc1cccc(OC)c1S(=O)(=O)Nc1noc2nc(N3CCC(OC)C3)cc(OC)c12` (centres unmarked) [Compound 19, 2,6-dimethoxy-N-(4-methoxy-6-(3-methoxypyrrolidin-1-yl)isoxazolo[5,4-b]pyridin-3-yl)benzenesulfonamide], the inhibition at 1 µM is 92% and the IC50 is 110 to 200 nM.

As to `COc1cccc(OC)c1S(=O)(=O)Nc1noc2ncccc12` [Compound 24, N-(isoxazolo[5,4-b]pyridin-3-yl)-2,6-dimethoxybenzenesulfonamide], the inhibition at 1 µM was 13%.

Molecule `COc1cccc(OC)c1S(=O)(=O)Nc1noc2nc(-c3ccccc3)cc(OC)c12` [Compound 1, 2,6-dimethoxy-N-(4-methoxy-6-phenylisoxazolo[5,4-b]pyridin-3-yl)benzenesulfonamide] had an inhibition at 1 µM of 100% and an IC50 of less than 100 nM.

`COc1cccc(OC)c1S(=O)(=O)Nc1noc2nc(-c3ccsc3)cc(OC)c12` [Compound 31, 2,6-dimethoxy-N-(4-methoxy-6-(thiophen-3-yl)isoxazolo[5,4-b]pyridin-3-yl)benzenesulfonamide] returned an IC50 of less than 100 nM.

For the origin of these results see US20240254139A1, “FUSED ISOXAZOLYL COMPOUNDS AS KAT6A INHIBITORS” (Aurigene Oncology Limited, priority 2021, published 2024).
